Data reported in EP3362444B1, “COMPOUNDS” (Exonate Limited, priority 2015, dated 2017).

Target: T1, SRPK1 (Homo sapiens, UniProt Q96SB4)
T1 construct: 0.1 µg of purified SRPK1 kinase
Test: In vitro kinase assay (Kinase-Glo), SRPK1 inhibition
Format: biochemical
Details: SRPK1 inhibition assay; 1 µM ATP, SRSF1 RS peptide, 30°C 10 minutes
Protocol: Candidate compounds were tested for SRPK1 inhibition using a Kinase-Glo assay (Promega, Southampton, UK32). […] Candidate compounds were serially diluted from 10 µM to 0.5 nM and added to the reaction mixture, wells with omitted SRPK1 kinase and omitted compounds were also added as controls. All wells contained 1% DMSO (Fisher Scientific, Loughborough, UK). One micromolar ATP was added, wells minus ATP were used as background controls. The plate was then incubated at 30°C for 10 minutes. An equal volume of Kinase-Glo (25 µL; Promega) was added to each well and the plate read for luminescence using a Fluostar Optima (BMG Labtech) .

T1 sequence (Q96SB4 whole entry): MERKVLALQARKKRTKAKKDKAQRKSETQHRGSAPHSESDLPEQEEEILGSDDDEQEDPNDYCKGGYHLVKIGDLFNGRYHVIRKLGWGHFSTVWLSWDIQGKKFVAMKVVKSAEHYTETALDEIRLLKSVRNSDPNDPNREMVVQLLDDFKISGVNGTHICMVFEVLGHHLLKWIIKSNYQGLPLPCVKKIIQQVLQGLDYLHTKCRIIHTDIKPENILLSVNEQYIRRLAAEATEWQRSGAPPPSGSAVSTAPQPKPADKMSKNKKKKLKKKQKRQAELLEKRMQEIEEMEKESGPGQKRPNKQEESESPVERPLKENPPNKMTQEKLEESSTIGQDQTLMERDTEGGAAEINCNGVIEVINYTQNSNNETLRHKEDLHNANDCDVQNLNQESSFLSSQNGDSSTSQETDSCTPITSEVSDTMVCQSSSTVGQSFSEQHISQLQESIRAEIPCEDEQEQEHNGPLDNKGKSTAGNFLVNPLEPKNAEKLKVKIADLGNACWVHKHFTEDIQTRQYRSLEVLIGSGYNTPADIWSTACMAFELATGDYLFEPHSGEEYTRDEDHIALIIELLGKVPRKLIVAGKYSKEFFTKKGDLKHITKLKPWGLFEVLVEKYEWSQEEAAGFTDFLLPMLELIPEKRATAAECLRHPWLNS

First: O=C(Nc1cc(C(F)(F)F)ccc1N1CCN(Cc2cscn2)CC1)c1ccccn1 [Compound 31, N-(2-(4-(thiazol-4-ylmethyl)piperazin-1-yl)-5-(trifluoromethyl)phenyl)-picolinamide]
Second: O=C(Nc1cc(C(F)(F)F)ccc1N1CCN(Cc2cocn2)CC1)c1ccccn1 [Compound 36, N-(2-(4-(oxazol-4-ylmethyl)piperazin-1-yl)-5-(trifluoromethyl)phenyl)-picolinamide]
The IC50 of the first is 3.2-fold lower: 0.0067 µM for the first, 0.0216 µM for the second.

Compared with O=C(Nc1cc(C(F)(F)F)ccc1N1CCN(Cc2cncs2)CC1)c1ccccn1 [Compound 32, N-(2-(4-(thiazol-5-ylmethyl)piperazin-1-yl)-5-(trifluoromethyl)phenyl)-picolinamide], O=C(Nc1cc(C(F)(F)F)ccc1N1CCN(Cc2cc[nH]n2)CC1)c1ccccn1 [Compound 33, N-(2-(4-((1H-pyrazol-3-yl)methyl)piperazin-1-yl)-5-(trifluoromethyl)-phenyl)picolinamide] is 25-fold higher in IC50: 0.0005 µM for the first, 0.0127 µM for the second. The first is the more potent here.

First: Cn1ccc(CN2CCN(c3ccc(C(F)(F)F)cc3NC(=O)c3ccccn3)CC2)n1 [Compound 34, N-(2-(4-((1-methyl-1H-pyrazol-3-yl)methyl)piperazin-1-yl)-5-(trifluoromethyl)phenyl)picolinamide]
Second: Cc1ccc(CN2CCN(c3ccc(C(F)(F)F)cc3NC(=O)c3ccccn3)CC2)o1 [Compound 40, N-(2-(4-((5-methylfuran-2-yl)methyl)piperazin-1-yl)-5-(trifluoro-methyl)phenyl)picolinamide]
The IC50 of the first is 5.4-fold lower: 0.027 µM for the first, 0.145 µM for the second. The first is the more potent here.

Going from O=C(Nc1cc(C(F)(F)F)ccc1N1CCN(Cc2ccco2)CC1)c1ccncc1 [Compound 35, N-(2-(4-(furan-2-ylmethyl)piperazin-1-yl)-5-(trifluoromethyl)-phenyl)isonicotinamide] to Cc1ccc(CN2CCN(c3ccc(C(F)(F)F)cc3NC(=O)c3ccco3)CC2)o1 [Compound 48, N-(2-(4-((5-methylfuran-2-yl)methyl)piperazin-1-yl)-5-(trifluoromethyl)phenyl)furan-2-carboxamide], the IC50 falls from 0.388 µM to 0.0326 µM (12-fold). The second is the more potent here.

O=C(Nc1cc(C(F)(F)F)ccc1N1CCN(Cc2c[nH]c3ccccc23)CC1)c1ccccn1 [Compound 38, N-(2-(4-((1H-indol-3-yl)methyl)piperazin-1-yl)-5-(trifluoromethyl)phenyl)picolinamide] and O=C(Nc1cc(C(F)(F)F)ccc1N1CCN(Cc2cocn2)CC1)c1cc2ccccc2o1 [Compound 51, N-(2-(4-(oxazol-4-ylmethyl)piperazin-1-yl)-5-(trifluoro-methyl)-phenyl)benzofuran-2-carboxamide] are within 1.5-fold of each other in IC50: 0.0313 µM for the first, 0.021 µM for the second.

Going from O=C(Nc1cc(C(F)(F)F)ccc1N1CCN(Cc2cocn2)CC1)c1ccco1 [Compound 39, N-(2-(4-(oxazol-4-ylmethyl)piperazin-1-yl)-5-(trifluoro-methyl)-phenyl)furan-2-carboxamide] to O=C(Nc1cc(C(F)(F)F)ccc1N1CCN(Cc2cocn2)CC1)c1ccno1 [Compound 50, N-(2-(4-(oxazol-4-ylmethyl)piperazin-1-yl)-5-(trifluoro-methyl)phenyl)isoxazole-5-carboxamide], the IC50 rises from 0.0607 µM to 0.561 µM (9.2-fold).

Compared with O=C(Nc1cc(C(F)(F)F)ccc1N1CCN(Cc2cocn2)CC1)c1ncco1 [Compound 42, N-(2-(4-(oxazol-4-ylmethyl)piperazin-1-yl)-5-(trifluoro-methyl)phenyl)oxazole-2-carboxamide], O=C(Nc1cc(C(F)(F)F)ccc1N1CCN(Cc2cocn2)CC1)c1cocn1 [Compound 57, N-(2-(4-(oxazol-4-ylmethyl)piperazin-1-yl)-5-(trifluoro-methyl)phenyl)oxazole-4-carboxamide] is 11-fold lower in IC50: 1.26 µM for the first, 0.117 µM for the second. The second is the more potent here.

First: O=C(Nc1cc(C(F)(F)F)ccc1N1CCN(Cc2ccoc2)CC1)c1ccc(C2CCOCC2)o1 [Compound 43, N-(2-(4-(furan-3-ylmethyl)piperazin-1-yl)-5-(trifluoromethyl)phenyl)-5-(tetrahydro-2H-pyran-4-yl)furan-2-carboxamide]
Second: Cc1ccc(CN2CCN(c3ccc(C(F)(F)F)cc3NC(=O)c3ccc(C4CCOCC4)o3)CC2)o1 [Compound 44, N-(2-(4-((5-methylfuran-2-yl)methyl)piperazin-1-yl)-5-(trifluoromethyl)phenyl)-5-(tetrahydro-2H-pyran-4-yl)furan-2-carboxamide]
The IC50 of the first is 5.3-fold lower: 0.0007 µM for the first, 0.0037 µM for the second. The first is the more potent here.

Compared with Cc1ccc(C(=O)Nc2cc(C(F)(F)F)ccc2N2CCN(Cc3ccoc3)CC2)o1 [Compound 45, N-(2-(4-(furan-3-ylmethyl)piperazin-1-yl)-5-(trifluoromethyl)phenyl)-5-methylfuran-2-carboxamide], O=C(Nc1cc(C(F)(F)F)ccc1N1CCN(Cc2ccoc2)CC1)c1ccco1 [Compound 47, N-(2-(4-(furan-3-ylmethyl)piperazin-1-yl)-5-(trifluoromethyl)phenyl)furan-2-carboxamide] is 12-fold higher in IC50: 0.0018 µM for the first, 0.0219 µM for the second.

Going from Cc1ccc(CN2CCN(c3ccc(C(F)(F)F)cc3NC(=O)c3ccc(C)o3)CC2)o1 [Compound 46, 5-methyl-N-(2-(4-((5-methylfuran-2-yl)methyl)piperazin-1-yl)-5-(trifluoromethyl)phenyl)furan-2-carboxamide] to Cc1nnc(CN2CCN(c3ccc(C(F)(F)F)cc3NC(=O)c3ccco3)CC2)o1 [Compound 49, N-(2-(4-((5-methyl-1,3,4-oxadiazol-2-yl)methyl)piperazin-1-yl)-5-(trifluoromethyl)phenyl)furan-2-carboxamide], the IC50 rises from 0.0107 µM to 0.117 µM (11-fold). The first is the more potent here.

O=C(Nc1cc(C(F)(F)F)ccc1N1CCN(Cc2cocn2)CC1)c1cnccn1 [Compound 52, N-(2-(4-(oxazol-4-ylmethyl)piperazin-1-yl)-5-(trifluoro-methyl)phenyl)pyrazine-2-carboxamide] and O=C(Nc1cc(C(F)(F)F)ccc1N1CCN(Cc2cocn2)CC1)c1ccncn1 [Compound 56, N-(2-(4-(oxazol-4-ylmethyl)piperazin-1-yl)-5-(trifluoro-methyl)phenyl)pyrimidine-4-carboxamide] are within 1.5-fold of each other in IC50: 0.162 µM for the first, 0.134 µM for the second.

First: O=C(Nc1cc(C(F)(F)F)ccc1N1CCN(Cc2cocn2)CC1)c1cc[nH]n1 [Compound 53, N-(2-(4-(oxazol-4-ylmethyl)piperazin-1-yl)-5-(trifluoro-methyl)phenyl)-1H-pyrazole-3-carboxamide]
Second: O=C(Nc1cc(C(F)(F)F)ccc1N1CCN(Cc2cocn2)CC1)c1ncccn1 [Compound 54, N-(2-(4-(oxazol-4-ylmethyl)piperazin-1-yl)-5-(trifluoro-methyl)phenyl)pyrimidine-2-carboxamide]
The IC50 of the first is 4.1-fold lower: 0.0831 µM for the first, 0.344 µM for the second. The first is the more potent here.

First: O=C(Nc1cc(C(F)(F)F)ccc1N1CCN(Cc2cocn2)CC1)c1nc2ccccc2o1 [Compound 55, N-(2-(4-(oxazol-4-ylmethyl)piperazin-1-yl)-5-(trifluoromethyl)phenyl)benzo[d]oxazole-2-carboxamide]
Second: O=C(Nc1cc(C(F)(F)F)ccc1N1CCN(Cc2cocn2)CC1)c1cccc(C2CCOCC2)n1 [Compound 58, N-(2-(4-(oxazol-4-ylmethyl)piperazin-1-yl)-5-(trifluoromethyl)phenyl)-6-(tetrahydro-2H-pyran-4-yl)picolinamide]
The IC50 of the first is 18-fold higher: 1.84 µM for the first, 0.104 µM for the second. The second is the more potent here.

For O=C(Nc1cc(C(F)(F)F)ccc1N1CCN(Cc2cocn2)CC1)c1ccc(C2CCOCC2)cn1 [Compound 59, N-(2-(4-(oxazol-4-ylmethyl)piperazin-1-yl)-5-(trifluoromethyl)phenyl)-5-(tetrahydro-2H-pyran-4-yl)picolinamide], the IC50 was 0.974 µM.

Same assay, conditions: by kinase assay or differential scanning fluorimetry; Figures 1 and 2

O=C(Nc1cc(C(F)(F)F)ccc1N1CCN(Cc2ccoc2)CC1)c1ccc(C2CCOCC2)o1 [Compound 43, N-(2-(4-(furan-3-ylmethyl)piperazin-1-yl)-5-(trifluoromethyl)phenyl)-5-(tetrahydro-2H-pyran-4-yl)furan-2-carboxamide] was tested, and the “potency against SRPK1 relative to analogous compounds in which R3 is a pyridyl ring” value was “improved potency”.
